Test results from PubChem BioAssay AID1963449 (Molecular Pharmacology Branch, DTP, NCI, 2024).

Tested on: 596521-263-R-J1-PDC complex spheroid growth
Assay: Anticancer human tumor 596521-263-R-J1-PDC patient-derived soft tissue sarcoma cell line growth inhibition [Asc]
Details: for IC50: curve of first compound; for viability, T/C: stronger effect = lower value
How it was run: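 Complex spheroids combining tumor cells with HUVEC endothelial cells and human MSCs, at 37 degrees C, 5% CO2; agents tested alone or combined, half-log dilutions from at or near clinical Cmax, or 10 microM if Cmax unknown.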
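Also: spheroids exposed to compounds for 7 days.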

`NC1CCC(NC2CC2c2ccccc2)CC1` (centres undefined) + Cc1c(S(C)(=O)=O)c(-c2cc(F)cc(N3CCN(c4ccc(NS(=O)(=O)c5ccc(NC(CCN6CCC(C(=O)OCCCP(=O)(O)O)CC6)CSc6ccccc6)c(S(=O)(=O)C(F)(F)F)c5)cc4)CC3)c2)c(-c2ccc(Cl)cc2)n1C(C)C showed an IC50 (second compound 0.0316 µM) greater than 100 nM, an IC50 (second compound 0.1 µM) greater than 100 nM and an IC50 (second compound 0.316 µM) greater than 100 nM. It also gave an IC50 (second compound 1 µM) greater than 100 nM, an IC50 (second compound 3.16 µM) greater than 100 nM and an IC50 (second compound 10 µM) of less than 0.316 nM. For the same compound, the viability, T/C (second compound 0.0316 µM, first compound 0.000316 µM) was 79.8%, the viability, T/C (second compound 0.0316 µM, first compound 0.001 µM) was 88.9% and the viability, T/C (second compound 0.0316 µM, first compound 0.00316 µM) was 80.2%. The viability, T/C (second compound 0.0316 µM, first compound 0.01 µM) was 90.4%, the viability, T/C (second compound 0.0316 µM, first compound 0.0316 µM) was 89.2% and the viability, T/C (second compound 0.0316 µM, first compound 0.1 µM) was 80.6%. It also gave a viability, T/C (second compound 0.1 µM, first compound 0.000316 µM) of 86.7%, a viability, T/C (second compound 0.1 µM, first compound 0.001 µM) of 91.8% and a viability, T/C (second compound 0.1 µM, first compound 0.00316 µM) of 77.5%. The viability, T/C (second compound 0.1 µM, first compound 0.01 µM) was 89.7%, the viability, T/C (second compound 0.1 µM, first compound 0.0316 µM) was 86.5% and the viability, T/C (second compound 0.1 µM, first compound 0.1 µM) was 80.8%. The viability, T/C (second compound 0.316 µM, first compound 0.000316 µM) was 84.1%, the viability, T/C (second compound 0.316 µM, first compound 0.001 µM) was 77.6% and the viability, T/C (second compound 0.316 µM, first compound 0.00316 µM) was 75.9%. It also gave a viability, T/C (second compound 0.316 µM, first compound 0.01 µM) of 77.9%, a viability, T/C (second compound 0.316 µM, first compound 0.0316 µM) of 76.7% and a viability, T/C (second compound 0.316 µM, first compound 0.1 µM) of 75.7%. For the same compound, the viability, T/C (second compound 1 µM, first compound 0.000316 µM) was 81.2%, the viability, T/C (second compound 1 µM, first compound 0.001 µM) was 75.8% and the viability, T/C (second compound 1 µM, first compound 0.00316 µM) was 66.3%. It also gave a viability, T/C (second compound 1 µM, first compound 0.01 µM) of 72.7%, a viability, T/C (second compound 1 µM, first compound 0.0316 µM) of 68.7% and a viability, T/C (second compound 1 µM, first compound 0.1 µM) of 74.1%. It also gave a viability, T/C (second compound 3.16 µM, first compound 0.000316 µM) of 69.1%, a viability, T/C (second compound 3.16 µM, first compound 0.001 µM) of 55.7% and a viability, T/C (second compound 3.16 µM, first compound 0.00316 µM) of 51.9%. For the same compound, the viability, T/C (second compound 3.16 µM, first compound 0.01 µM) was 58.9%, the viability, T/C (second compound 3.16 µM, first compound 0.0316 µM) was 55.4% and the viability, T/C (second compound 3.16 µM, first compound 0.1 µM) was 53.4%. For the same compound, the viability, T/C (second compound 10 µM, first compound 0.000316 µM) was 48.6%, the viability, T/C (second compound 10 µM, first compound 0.001 µM) was 42.9% and the viability, T/C (second compound 10 µM, first compound 0.00316 µM) was 44.2%. For the same compound, the viability, T/C (second compound 10 µM, first compound 0.01 µM) was 49%, the viability, T/C (second compound 10 µM, first compound 0.0316 µM) was 35.7% and the viability, T/C (second compound 10 µM, first compound 0.1 µM) was 43%.
For `Cn1ncnc1[C@H]1c2n[nH]c(=O)c3cc(F)cc(c23)N[C@@H]1c1ccc(F)cc1` + CCN1C(C(=O)NC23CCC(C(=O)O)(CC2)CC3)C(c2cccc(Cl)c2F)C2(C(=O)Nc3cc(Cl)ccc32)C12CCCCC2, the IC50 (second compound 0.00949 µM) was greater than 100 nM, the IC50 (second compound 0.03 µM) was greater than 100 nM and the IC50 (second compound 0.0949 µM) was greater than 100 nM. For the same compound, the IC50 (second compound 0.3 µM) was greater than 100 nM, the IC50 (second compound 0.949 µM) was greater than 100 nM and the IC50 (second compound 3 µM) was greater than 100 nM. It also gave a viability, T/C (second compound 0.00949 µM, first compound 0.000316 µM) of 109%, a viability, T/C (second compound 0.00949 µM, first compound 0.001 µM) of 94.8% and a viability, T/C (second compound 0.00949 µM, first compound 0.00316 µM) of 96.6%. The viability, T/C (second compound 0.00949 µM, first compound 0.01 µM) was 91.8%, the viability, T/C (second compound 0.00949 µM, first compound 0.0316 µM) was 88.4% and the viability, T/C (second compound 0.00949 µM, first compound 0.1 µM) was 81.8%. For the same compound, the viability, T/C (second compound 0.03 µM, first compound 0.000316 µM) was 103%, the viability, T/C (second compound 0.03 µM, first compound 0.001 µM) was 98.1% and the viability, T/C (second compound 0.03 µM, first compound 0.00316 µM) was 100%. The viability, T/C (second compound 0.03 µM, first compound 0.01 µM) was 105%, the viability, T/C (second compound 0.03 µM, first compound 0.0316 µM) was 90.1% and the viability, T/C (second compound 0.03 µM, first compound 0.1 µM) was 81.1%. For the same compound, the viability, T/C (second compound 0.0949 µM, first compound 0.000316 µM) was 104%, the viability, T/C (second compound 0.0949 µM, first compound 0.001 µM) was 102% and the viability, T/C (second compound 0.0949 µM, first compound 0.00316 µM) was 106%. For the same compound, the viability, T/C (second compound 0.0949 µM, first compound 0.01 µM) was 88.7%, the viability, T/C (second compound 0.0949 µM, first compound 0.0316 µM) was 87.8% and the viability, T/C (second compound 0.0949 µM, first compound 0.1 µM) was 78.6%. It also gave a viability, T/C (second compound 0.3 µM, first compound 0.000316 µM) of 104%, a viability, T/C (second compound 0.3 µM, first compound 0.001 µM) of 99.9% and a viability, T/C (second compound 0.3 µM, first compound 0.00316 µM) of 110%. It also gave a viability, T/C (second compound 0.3 µM, first compound 0.01 µM) of 108%, a viability, T/C (second compound 0.3 µM, first compound 0.0316 µM) of 104% and a viability, T/C (second compound 0.3 µM, first compound 0.1 µM) of 87.3%. For the same compound, the viability, T/C (second compound 0.949 µM, first compound 0.000316 µM) was 102%, the viability, T/C (second compound 0.949 µM, first compound 0.001 µM) was 91.2% and the viability, T/C (second compound 0.949 µM, first compound 0.00316 µM) was 91.2%. It also gave a viability, T/C (second compound 0.949 µM, first compound 0.01 µM) of 92.4%, a viability, T/C (second compound 0.949 µM, first compound 0.0316 µM) of 99.4% and a viability, T/C (second compound 0.949 µM, first compound 0.1 µM) of 85.5%. For the same compound, the viability, T/C (second compound 3 µM, first compound 0.000316 µM) was 76.4%, the viability, T/C (second compound 3 µM, first compound 0.001 µM) was 78.5% and the viability, T/C (second compound 3 µM, first compound 0.00316 µM) was 80.6%. For the same compound, the viability, T/C (second compound 3 µM, first compound 0.01 µM) was 70.3%, the viability, T/C (second compound 3 µM, first compound 0.0316 µM) was 75.3% and the viability, T/C (second compound 3 µM, first compound 0.1 µM) was 65.7%.
